Test results from patent US20130059787A1, “METHODS OF USING HUMAN PROTEIN KINASE C DELTA VIII AS A BIOMARKER” (UNITED STATES DEPARTMENT OF VETERAN AFFAIRS, priority 2010, published 2013).

Experiments:
SR proteins = experiment: Western blot of NT2 whole cell lysates with mAb104 antibody; assay type: cell-based, human; conditions: RA about 10 μM, about 24 h; NT2 cells
Experimental: (§1) FIG. 6 is a series of images illustrating the detection of SR proteins involved in RA-mediated PKXδVIII expression. NT2 cells were treated with RA (about 10 μM) for about 24 h or without RA (control), and Western blot analysis was performed on whole cell lysates using (a) mAb104 antibody that detects all SR proteins and (b) specific antibodies as indicated in the figure. Molecular masses are indicated (kDa).
(§2) Cell lysates (about 40 μg) were separated on 10% SDS-PAGE. […] In apoptotic cells, PARP is cleaved by caspase 3 into an 85 kDa fragment which is detected in addition to the 116 KDa fragment using anti-PARP antibody in western blot analysis. […] (Putt K S, Beilman G J, and H. P J., Direct quantitation of poly(ADP-ribose) polymerase (PARP) activity as a means to distinguish necrotic and apoptotic death in cell and tissue samples. Chembiochem, 2005. 6: p. 53-55)
(§3) (SR) proteins that bind to exonic or intronic splicing enhancers (ESE, ISE) on the pre-mRNA. […] NT2 cells were treated with or without RA (about 24 h), and whole cell lysates were analyzed by Western blot analysis using mAb104 antibody that simultaneously detects the phosphoepitopes on all SR proteins. […]

SC35 (SRp30b) = experiment: Western blot of NT2 whole cell lysates with specific antibodies; assay type: cell-based, human; conditions: RA about 10 μM, about 24 h; NT2 cells
Experimental: as §1, §2, §3

SF2/ASF (SRp30a) = experiment: as above; assay type: cell-based, human; conditions: RA about 10 μM, about 24 h; NT2 cells
Experimental: as §1, §2, §3

[1] = system: 5′ splice site II on PKCδ exon 10; experiment: Mutated pSPL3_PKCδ** minigene (SC35 cis-element mutated) in NT2 cells, RT-PCR; assay type: cell-based, human; conditions: RA about 10 μM, about 24 h
Source text: FIG. 11 is a series of images depicting mutation of putative SC35 binding site inhibits RA-mediated utilization of 5′ splice site II utilization on the minigene. (a) schematic of the position and sequence of the putative SC35 cis-element on the pSPL3_PKCδ splicing minigene. Arrows indicate the position of primers used in PCR analysis. Putative SC35 binding site ggccaaag (SEQ ID No: 17) was mutated to tagcccaga (SEQ ID No: 18) on the minigene. (b) resulting mutated minigene pSPL3_PKCδ** was transfected into NT2 cells. In separate wells, the mutated minigene pSPL3_PKCδ** was co-transfected with either about 2 μg of SC35 or SF2/ASF. The original pSPL3_PKCδ splicing minigene was also transfected in a separate well. After overnight transfection, NT2 cells were treated with or without about 10 μM RA for about 24 h. Total RNA was extracted and RT-PCR performed using primers for PKCδ exon 10 sense and SA antisense as shown. About 5% of the products were separated by PAGE and silver stained for visualization. SSI: usage of 5′ splice site I; SSII: usage of 5′ splice site II. Graph represents percent exon inclusion calculated as SS II/(SS II+SSI)×100 and is representative of three experiments performed separately. […]

APP/PS1 transgenic mice = conditions: RA treatment; cited from earlier work

CC1=C(/C=C/C(C)=C/C=C/C(C)=C/C(=O)O)C(C)(C)CCC1 [RA, all-trans-retinoic acid]
SR protein at ~30 kDa expression (mAb104) (SR proteins): increased in expression | SC35 (SRp30b) expression (SC35 (SRp30b)): increase | SF2/ASF (SRp30a) expression (SF2/ASF (SRp30a)): remained relatively constant | selection of 5′ splice site II on PKCδ exon 10 in pSPL3_PKCδ**-mutated minigene [1]: did not promote | APP phosphorylation and processing (APP/PS1 transgenic mice): decreased | Aβ deposition (APP/PS1 transgenic mice): decreased | activation of microglia and astrocytes (APP/PS1 transgenic mice): decreased | neuronal degeneration (APP/PS1 transgenic mice): attenuated | spatial learning and memory (APP/PS1 transgenic mice): improved | tau phosphorylation (APP/PS1 transgenic mice): decreased
